This is an account of results in patent publication US20180002288A1, “USE OF PICOLINAMIDES AS FUNGICIDES” (DOW AGROSCIENCES LLC, priority 2014, published 2018).

Assay [1] deals with Zymoseptoria tritici. In words: Leaf Blotch of Wheat fungicidal activity (SEPTTR). The assay is classed as in vivo. The note with it: Low Volume Cereal Activity at 121.5 g/Ha.
Assay [2] relates to Phakopsora pachyrhizi. In words: Asian Soybean Rust fungicidal activity (PHAKPA). The following applies: Phakopsora pachyrhizi, in Glycine max.
For assay [3], the system named is Puccinia triticina. The assay is described as follows: Wheat Brown Rust fungicidal activity (PUCCRT). It is filed as in vivo. The following applies: Low Volume Cereal Activity at 121.5 g/Ha.
The mark [4] stands for this setting: 24 h, 1 Day Protectant, read-out: SEPTTR 1DP (Wheat Leaf Blotch, 1 Day Protectant).
The mark [5] stands for this setting: 72 h, 3 Day Curative, read-out: SEPTTR 3DC (Wheat Leaf Blotch, 3 Day Curative).
[6] abbreviates: 24 h, read-out: PHAKPA 1DP % Control rating, soybean, high volume, 25 ppm, 1 Day Protectant.
Setting [7] is: 72 h, read-out: PHAKPA 3DC % Control rating, soybean, high volume, 25 ppm, 3 Day Curative.
The mark [8] stands for this setting: 24 h, 1 Day Protectant, read-out: PUCCRT 1DP (Wheat Brown Rust, 1 Day Protectant).
The mark [9] stands for this setting: 72 h, 3 Day Curative, read-out: PUCCRT 3DC (Wheat Brown Rust, 3 Day Curative).

Like-named read-outs stand apart in the source and are kept apart here.

Consider `COc1ccnc(C(=O)N[C@@H](C)C(=O)O[C@@H](C)[C@H](Oc2ccccc2)c2ccc(F)cc2OC(C)=O)c1OC(C)=O` [Example 267], for which the pest or weed control at 121.5 g/ha in assay [1] (setting [4]) was over 80%; in assay [1] (setting [5]) it was under 80%; in assay [3] (setting [8]), under 80%; in assay [3] (setting [9]) it was under 0%. Also, the pest or weed control at 25 ppm in assay [2] (setting [6]) and in assay [2] (setting [7]) was under 80% throughout.
As to `COc1ccnc(C(=O)N[C@@H](C)C(=O)O[C@@H](C)[C@H](OCC2CC2)c2cccc(-c3ccccc3)c2)c1OCOC(C)=O` [Example 220], the pest or weed control at 121.5 g/ha was under 80% in assay [1] (setting [4]), over 80% in assay [1] (setting [5]), over 80% in assay [3] (setting [8]) and over 80% in assay [3] (setting [9]). The pest or weed control at 25 ppm in assay [2] (setting [6]) is over 80%; in assay [2] (setting [7]), under 80%.
Take `COc1ccnc(C(=O)N[C@@H](C)C(=O)O[C@@H](C)[C@H](Oc2cccc(F)c2)c2ccccc2)c1OC(C)=O` [Example 188]: the pest or weed control at 121.5 g/ha in assay [1] (setting [4]), in assay [1] (setting [5]), in assay [3] (setting [8]) and in assay [3] (setting [9]) was over 80% in each case. Also, the pest or weed control at 25 ppm in assay [2] (setting [6]) was over 80%; in assay [2] (setting [7]), under 80%.
As for `COc1cc(F)ccc1[C@@H](OCC1CC1)[C@H](C)OC(=O)[C@H](C)NC(=O)c1nccc(OC)c1OC(C)=O` [Example 295], the pest or weed control at 121.5 g/ha in assay [1] (setting [4]) is over 80%; in assay [1] (setting [5]), over 80%; in assay [3] (setting [8]) it was over 80%; in assay [3] (setting [9]), under 80%. The pest or weed control at 25 ppm in assay [2] (setting [6]) was over 80%; in assay [2] (setting [7]), under 80%.
In the case of `COc1cc(F)ccc1[C@@H](Oc1ccc(C)cc1Cl)[C@H](C)OC(=O)[C@H](C)NC(=O)c1nccc(OC)c1OC(C)=O` [Example 266], the pest or weed control at 121.5 g/ha in assay [1] (setting [4]) is over 80%; in assay [1] (setting [5]), over 80%; in assay [3] (setting [8]), over 80%; in assay [3] (setting [9]), under 80%. Besides, the pest or weed control at 25 ppm is under 80% in assay [2] (setting [6]) and under 0% in assay [2] (setting [7]).
For the compound `COc1ccnc(C(=O)N[C@@H](C)C(=O)O[C@@H](C)[C@H](Oc2ccccc2)c2ccccc2)c1OC(C)=O` [Example 184], the pest or weed control at 121.5 g/ha in assay [1] (setting [4]), in assay [1] (setting [5]), in assay [3] (setting [8]) and in assay [3] (setting [9]) was over 80% throughout. Moreover, the pest or weed control at 25 ppm in assay [2] (setting [6]) and in assay [2] (setting [7]) was under 80% throughout.
For the compound `COc1ccnc(C(=O)N[C@@H](C)C(=O)O[C@@H](C)[C@H](Oc2ccccc2)c2ccc(F)cc2OCC2CC2)c1OC(C)=O` [Example 272], the pest or weed control at 121.5 g/ha in assay [1] (setting [4]), in assay [1] (setting [5]), in assay [3] (setting [8]) and in assay [3] (setting [9]) was over 80% throughout. Moreover, the results for the pest or weed control at 25 ppm in assay [2] (setting [6]) and in assay [2] (setting [7]) were under 80% and under 0%, respectively.
`COc1ccnc(C(=O)N[C@@H](C)C(=O)O[C@@H](C)[C@H](Oc2ccccc2)c2ccc(F)cc2)c1OCOC(C)=O` [Example 241]: the pest or weed control at 121.5 g/ha in assay [1] (setting [4]), in assay [1] (setting [5]), in assay [3] (setting [8]) and in assay [3] (setting [9]) was over 80% each time. For the same compound, the pest or weed control at 25 ppm in assay [2] (setting [6]) was over 80%; in assay [2] (setting [7]) it was under 0%.
For `CCCO[C@H](c1ccccc1)[C@H](C)OC(=O)[C@H](C)NC(=O)c1nccc(OC)c1OC(C)=O` [Example 228], the pest or weed control at 121.5 g/ha in assay [1] (setting [4]) was under 80%; in assay [1] (setting [5]), over 80%; in assay [3] (setting [8]), over 80%; in assay [3] (setting [9]), over 80%. In addition, the results for the pest or weed control at 25 ppm in assay [2] (setting [6]) and in assay [2] (setting [7]) were over 80% and under 0%, respectively.
As to `CCOc1cc(F)ccc1[C@@H](Oc1ccccc1)[C@H](C)OC(=O)[C@H](C)NC(=O)c1nccc(OC)c1OC(C)=O` [Example 265], the pest or weed control at 121.5 g/ha in assay [1] (setting [4]), in assay [1] (setting [5]), in assay [3] (setting [8]) and in assay [3] (setting [9]) was over 80% each time. Also, the pest or weed control at 25 ppm in assay [2] (setting [6]) was under 80%; in assay [2] (setting [7]), under 0%.
For the compound `COc1ccnc(C(=O)N[C@@H](C)C(=O)O[C@@H](C)[C@H](OCC2CC2)c2ccccc2)c1OCOC(C)=O` [Example 182], the pest or weed control at 121.5 g/ha in assay [1] (setting [4]), in assay [1] (setting [5]), in assay [3] (setting [8]) and in assay [3] (setting [9]) was over 80% in each case. The pest or weed control at 25 ppm in assay [2] (setting [6]) is over 80%; in assay [2] (setting [7]) it was under 80%.
Take `COc1ccnc(C(=O)N[C@@H](C)C(=O)O[C@@H](C)[C@H](OCC(C)C)c2ccccc2)c1OC(C)=O` [Example 225]: the pest or weed control at 121.5 g/ha in assay [1] (setting [4]) was under 80%; in assay [1] (setting [5]) it was over 80%; in assay [3] (setting [8]), over 80%; in assay [3] (setting [9]), over 80%. The pest or weed control at 25 ppm in assay [2] (setting [6]) is over 80%; in assay [2] (setting [7]) it was under 80%.
`COc1ccnc(C(=O)N[C@@H](C)C(=O)O[C@@H](C)[C@H](OCC2CC2)c2ccccc2)c1OC(C)=O` [Example 233]: the pest or weed control at 121.5 g/ha in assay [1] (setting [4]), in assay [1] (setting [5]), in assay [3] (setting [8]) and in assay [3] (setting [9]) was over 80% in each case. Moreover, the pest or weed control at 25 ppm in assay [2] (setting [6]) is over 80%; in assay [2] (setting [7]), under 80%.
For `COc1cc(F)ccc1[C@@H](OC(=O)C(C)(C)C)[C@H](C)OC(=O)[C@H](C)NC(=O)c1nccc(OC)c1OC(C)=O` [Example 296], the pest or weed control at 121.5 g/ha in assay [1] (setting [4]) is over 80%; in assay [1] (setting [5]), over 80%; in assay [3] (setting [8]) it was over 80%; in assay [3] (setting [9]), under 0%. Also, the pest or weed control at 25 ppm in assay [2] (setting [6]) and in assay [2] (setting [7]) was under 80% each time.
Regarding `COc1ccnc(C(=O)N[C@@H](C)C(=O)O[C@@H](C)[C@H](Oc2ccccc2)c2ccc(C)cc2F)c1OCOC(C)=O` [Example 261], the pest or weed control at 121.5 g/ha in assay [1] (setting [4]), in assay [1] (setting [5]), in assay [3] (setting [8]) and in assay [3] (setting [9]) was over 80% throughout. Also, the pest or weed control at 25 ppm in assay [2] (setting [6]) is over 80%; in assay [2] (setting [7]), under 0%.
Regarding `CCCOc1cc(F)ccc1[C@@H](Oc1ccccc1)[C@H](C)OC(=O)[C@H](C)NC(=O)c1nccc(OC)c1OC(C)=O` [Example 268], the pest or weed control at 121.5 g/ha in assay [1] (setting [4]), in assay [1] (setting [5]), in assay [3] (setting [8]) and in assay [3] (setting [9]) was over 80% in each case. Moreover, the pest or weed control at 25 ppm in assay [2] (setting [6]) and in assay [2] (setting [7]) was under 80% throughout.
On to `COc1cc(F)ccc1[C@@H](OC(=O)C1CC1)[C@H](C)OC(=O)[C@H](C)NC(=O)c1nccc(OC)c1OC(C)=O` [Example 297], for which the pest or weed control at 121.5 g/ha is under 0% in assay [1] (setting [4]), under 80% in assay [1] (setting [5]), under 0% in assay [3] (setting [8]) and under 0% in assay [3] (setting [9]). Besides, the pest or weed control at 25 ppm in assay [2] (setting [6]) and in assay [2] (setting [7]) was under 80% throughout.
Consider `C=CCOc1cc(F)ccc1[C@@H](Oc1ccccc1)[C@H](C)OC(=O)[C@H](C)NC(=O)c1nccc(OC)c1OC(C)=O` [Example 264], for which the pest or weed control at 121.5 g/ha was over 80% in assay [1] (setting [4]), over 80% in assay [1] (setting [5]), over 80% in assay [3] (setting [8]) and under 0% in assay [3] (setting [9]). Also, the pest or weed control at 25 ppm in assay [2] (setting [6]) and in assay [2] (setting [7]) was under 80% each time.
As to `COc1ccnc(C(=O)N[C@@H](C)C(=O)O[C@@H](C)[C@H](Oc2ccccc2Cl)c2ccccc2)c1OCOC(C)=O` [Example 204], the pest or weed control at 121.5 g/ha in assay [1] (setting [4]) is under 80%; in assay [1] (setting [5]), over 80%; in assay [3] (setting [8]), over 80%; in assay [3] (setting [9]) it was over 80%. The pest or weed control at 25 ppm in assay [2] (setting [6]) was over 80%; in assay [2] (setting [7]) it was under 80%.
On to `COc1ccnc(C(=O)N[C@@H](C)C(=O)O[C@@H](C)[C@H](Oc2ccccc2)c2ccc(F)cc2Oc2ccccc2)c1OC(C)=O` [Example 275], for which the pest or weed control at 121.5 g/ha in assay [1] (setting [4]) was over 80%; in assay [1] (setting [5]) it was under 80%; in assay [3] (setting [8]) it was over 80%; in assay [3] (setting [9]) it was over 80%. Further, the pest or weed control at 25 ppm was under 80% in assay [2] (setting [6]) and under 0% in assay [2] (setting [7]).
For the compound `COc1cc(F)ccc1[C@H](OC1CC1)[C@H](C)OC(=O)[C@H](C)NC(=O)c1nccc(OC)c1OC(C)=O` [Example 298], the pest or weed control at 121.5 g/ha was under 80% in assay [1] (setting [4]), under 0% in assay [1] (setting [5]), under 80% in assay [3] (setting [8]) and over 80% in assay [3] (setting [9]). In addition, the pest or weed control at 25 ppm was over 80% in assay [2] (setting [6]) and under 80% in assay [2] (setting [7]).
